Data reported in patent US8304393B2, “Epithelial cell growth promoter” (Patent Technology Development Inc., priority 2004, dated 2012).

Tested on: murine HBKs (hair bulb keratinocytes)
Experiment: HBK growth test (Example 5, AlamarBlue)
Assay type: cell-based, mouse
Settings: for cell growth effect as compared with that on the control: 4 days culture; for concentration at which significant difference from control could be noted: Dunnett's multiple comparison test, p<0.05
Description: The epithelial cell growth promoters of Examples 1 and 2 and Reference Examples 1 and 2 were subjected to a cell growth test for murine HBKs, respectively. The following culture medium and test medium were used.
DMEM (product code “D-5523”, a product by Sigma)
FBS (product code “10100756”, a product by Cansera International Inc.)
• 10% Penicillin/streptomycin (product code “15140-122”, a product by GIBCO) • 1% (b) Test medium MCDB153 (product code “M7403”, a product by Sigma) Insulin (product code “16634”, bovine, a product by Sigma) • 5 μg/ml Apo-transferrin (product code “T1147”, human, a product by Sigma) • 10 μg/ml EGF (product code “01-101”, murine, a product by Upstate Biotechnology Inc.) • […] BPE (product code “13028-014”, bovine pituitary extract, a product by GIBCO) • 35 μg/ml Water-soluble hydrocortisone (product code “174-00”, a product by NACALAI TESQUE INC.) • 0.5 μg/ml Ethanolamine (product code “012-12455”, a product of Wako Pure Chemical Industries Ltd.) • 100 μM o-phosphorylethanolamine (product code “P0503”, a product by Sigma) • 100 μM
The skin of a 5 day-old mouse was cut with a scalpel into strips of approximately 2-mm-wide skin slices, which were in turn immersed in a solution prepared by dissolving dispase (lot No. 0101, a product by GODO SHUSEI CO.) at a proportion of 500 U/ml in DMEM (product code “D-5523”, a product by Sigma) containing FBS (product code “10100756”, a product by Cansera International Inc.) in a concentration of 5%, and then kept standing at 4° C. for 16 hours. Subsequently, the epidermis was ablated and removed with tweezers from the skin slices to collect only dermis tissues. The thus obtained dermis tissues were immersed in PBS (−) (product code “P-4417”, a product by Sigma) and cut into strips with opthalmological scissors. The thus obtained strips were immersed in a solution prepared by dissolving collagenase (lot No. 001014W, a product by Nitta Gelatin Inc.) in a concentration of 0.2% in DMEM containing FBS in a concentration of 5%, and then digested at 37° C. for 1 hour. After centrifugation at 1000 rpm for 5 minutes, the supernatant was removed, and the residue was supplemented with PBS (−) and gently pipetted to prepare a dermis suspension.
For separating dermal fibroblasts and hair bulbs, the dermis suspension was kept standing for 15 minutes to precipitate only the hair bulbs. The hair bulbs obtained by repeating the “standing to precipitation” procedure three times were immersed in a solution prepared by dissolving, in 2.65 mM EDTA aqueous solution, trypsin in a concentration of 0.25%, and then treated at 37° C. for 5 minutes to prepare a dispersion solution of HBKs.
Next, this dispersion solution was centrifuged at 1000 rpm for 5 minutes. After this centrifugation, the supernatant was removed. The thus obtained HBKs were dispersed in a culture medium, then inoculated into a collagen-coated 96-well microplate, and cultured at 37° C. in an atmosphere containing 5% CO2.
The isoleucyl-glycyl-serine (hereinafter, abbreviated to IGS), prolyl-isoleucyl-glycine (hereinafter, abbreviated to PIG), prolyl-isoleucyl-glycyl-serine (SEQ ID NO: 2) (hereinafter, abbreviated to PIGS), and glycyl-prolyl-isoleucyl-glycine (SEQ ID NO: 1) (hereinafter, abbreviated to GPIG) obtained in Examples 1 and 2 and Reference Examples 1 and 2 were separately dissolved in a test media to prepare 6 types of sample solutions each in a concentration of 0.3 μM, 1 μM, 3 μM, 10 μM, 30 μM, and 100 μM. Only a test medium was used as a control.
After 24 hours from the inoculation of the cells, the culture solutions were removed, and the cultured cells were washed with an MCDB153 solution. Each of the above-mentioned sample solutions was added to the cultured cell at 100 μl/well and cultured at 37° C. in an atmosphere containing 5% CO2. […]

## CC[C@H](C)[C@H](NC(=O)[C@@H]1CCCN1C(=O)CN)C(=O)NCC(=O)O (racemic) [GPIG, glycyl-prolyl-isoleucyl-glycine]
0.3 μM
  cell growth effect as compared with that on the control: 105%
1 μM
  cell growth effect as compared with that on the control: 108%
3 μM
  cell growth effect as compared with that on the control: 118%
10 μM
  cell growth effect as compared with that on the control: 133%
30 μM
  cell growth effect as compared with that on the control: 134%
100 μM
  cell growth effect as compared with that on the control: 138%
  concentration at which significant difference from control could be noted: ≥ 0.3 µM

## CC[C@H](C)[C@H](N)C(=O)NCC(=O)N[C@@H](CO)C(=O)O (racemic) [IGS, isoleucyl-glycyl-serine]
0.3 μM
  cell growth effect as compared with that on the control: 98%
1 μM
  cell growth effect as compared with that on the control: 103%
3 μM
  cell growth effect as compared with that on the control: 106%
10 μM
  cell growth effect as compared with that on the control: 124%
30 μM
  cell growth effect as compared with that on the control: 134%
100 μM
  cell growth effect as compared with that on the control: 133%
  concentration at which significant difference from control could be noted: ≥ 10 µM

## CC[C@H](C)[C@H](NC(=O)[C@@H]1CCCN1)C(=O)NCC(=O)O (racemic) [PIG, prolyl-isoleucyl-glycine]
0.3 μM
  cell growth effect as compared with that on the control: 101%
1 μM
  cell growth effect as compared with that on the control: 103%
3 μM
  cell growth effect as compared with that on the control: 113%
10 μM
  cell growth effect as compared with that on the control: 132%
30 μM
  cell growth effect as compared with that on the control: 131%
100 μM
  cell growth effect as compared with that on the control: 134%
  concentration at which significant difference from control could be noted: ≥ 1 µM

## CC[C@H](C)[C@H](NC(=O)[C@@H]1CCCN1)C(=O)NCC(=O)N[C@@H](CO)C(=O)O (racemic) [PIGS, prolyl-isoleucyl-glycyl-serine]
0.3 μM
  cell growth effect as compared with that on the control: 104%
1 μM
  cell growth effect as compared with that on the control: 103%
3 μM
  cell growth effect as compared with that on the control: 108%
10 μM
  cell growth effect as compared with that on the control: 110%
30 μM
  cell growth effect as compared with that on the control: 127%
100 μM
  cell growth effect as compared with that on the control: 133%
  concentration at which significant difference from control could be noted: ≥ 3 µM
